{"source": "paper PMC11240926", "about": "“Integrating In Silico and In Vitro Approaches to Identify Natural Peptides with Selective Cytotoxicity against Cancer Cells” (International Journal of Molecular Sciences, 2024)", "key": {"[1]": {"system": "A431", "assay_type": "cell-based, human", "conditions": "Skin, MTT assay", "experimental": "(§1) The culture medium used for the cancer cell lines included 10% fetal bovine serum (Gibco, Grand Island, NY, USA) and 1% penicillin/streptomycin (Gibco) in 5% CO2 at 37 °C. Cells were seeded into 96-well tissue culture plates at a concentration of 1 × 10^4 cells per 200 μL per well and allowed to settle overnight. The cells were then treated with serial dilutions of various ACPs. After 48 h of incubation, cell viability for each line was assessed using the MTT colorimetric assay (Sigma-Aldrich, St. Louis, MO, USA). The peptide preparation and dilution in our anticancer assays are as follows: ACPs (10 mg) were dissolved in 100 μL of DMSO to generate 100 mg/mL stock solutions. These stock solutions were then diluted 100 times with a culture medium to obtain a 1 mg/mL solution. Finally, serial dilutions were prepared in a culture medium containing 1% DMSO to achieve the desired ACP concentrations for the MTT assay."}, "[2]": {"system": "A549", "assay_type": "cell-based, human", "conditions": "Lung, MTT assay", "experimental": "as §1"}, "[3]": {"system": "DBTRG brain tumor cells", "assay_type": "cell-based", "conditions": "human", "experimental": "as §1"}, "[4]": {"system": "Hs578T", "assay_type": "cell-based, human", "conditions": "Breast, MTT assay", "from_the_text": "Supplement ijms-25-06848-s001.zip/IJMS_Supplementary Table S2.xlsx, sheet \"Table S2\" | column: ACP1; ACP2; ACP3; ACP4; ACP5; ACP6; ACP7; ACP8; ACP9; ACP10; ACP11; ACP12"}, "[5]": {"system": "cancer cell lines", "experiment": "MTT colorimetric assay, panel of over 30 cancer cell lines", "assay_type": "cell-based, human", "conditions": "48 h", "experimental": "as §1"}, "[6]": {"system": "BT474 cells", "assay_type": "cell-based, human", "conditions": "MTT, 48 h", "experimental": "as §1"}, "[7]": {"system": "DU145 prostate cancer", "assay_type": "cell-based, human", "conditions": "MTT, 48 h", "experimental": "as §1"}, "[8]": {"system": "HT1080 fibrosarcoma", "assay_type": "cell-based, human", "conditions": "MTT, 48 h", "experimental": "as §1"}, "[9]": {"system": "SKOV-3 ovarian carcinoma", "assay_type": "cell-based, human", "conditions": "MTT, 48 h", "experimental": "as §1"}, "[10]": {"system": "Burkitt lymphoma-derived Daudi cell line", "assay_type": "cell-based, human", "conditions": "MTT, 48 h", "experimental": "as §1"}, "[11]": {"system": "triple-negative breast cancer cell line MDA-MB-231", "assay_type": "cell-based, human", "conditions": "MDA-MB-231, MTT, 48 h", "experimental": "as §1"}, "[12]": {"system": "HepG2", "assay_type": "cell-based, human", "conditions": "HepG2 liver cancer cells, MTT, 48 h", "experimental": "as §1"}, "[13]": {"system": "Mahlavu", "assay_type": "cell-based, human", "conditions": "Mahlavu liver cancer cells, MTT, 48 h", "experimental": "as §1"}, "[14]": {"conditions": "endometrial and hypopharyngeal cancer cells"}}, "note": "Ends that are not written are not given here. Peptide text beside a SMILES is read from it.", "data": [{"compound": "EQQQQQQPQNRRFRE [ACP11]", "values": [{"measurement": "Cytotoxicity against cancer cell line A431", "setting": "[1]", "value": ">1000"}, {"measurement": "Cytotoxicity against cancer cell line A549", "setting": "[2]", "value": ">1000"}, {"measurement": "IC50", "setting": "[3]", "value": 32.1, "unit": "µM"}, {"measurement": "Cytotoxicity against cancer cell line Hs578T", "setting": "[4]", "value": ">1000"}]}, {"compound": "KSCCPNTTGRNIYNTCRFGGGSREVCASLSGCKIISASTCPSYPDK (cysteines drawn unpaired) [ACP7]", "values": [{"measurement": "anticancer effects, in words", "setting": "[5]; [14]", "value": "affected"}, {"measurement": "anticancer effects, in words", "setting": "[5]; liver and breast cancers", "value": "notable anticancer effects"}]}, {"compound": "CC[C@H](C)[C@H](NC(=O)[C@@H]1CCCN1C(=O)[C@H](Cc1c[nH]c2ccccc12)NC(=O)[C@H](CO)NC(=O)[C@H](CS)NC(=O)[C@H](CO)NC(=O)[C@H](CS)NC(=O)CNC(=O)[C@@H]1CCCN1C(=O)[C@@H](NC(=O)[C@H](CC(N)=O)NC(=O)[C@H](CS)NC(=O)[C@@H](NC(=O)CNC(=O)CNC(=O)[C@H](Cc1ccccc1)NC(=O)[C@H](CS)NC(=O)[C@@H](NC(=O)[C@H](CCC(=O)O)NC(=O)CNC(=O)[C@H](CS)NC(=O)[C@@H](NC(=O)[C@@H](NC(=O)[C@@H]1CCCN1C(=O)[C@@H](NC(=O)[C@@H](NC(=O)[C@@H](N)CO)C(C)C)[C@@H](C)O)[C@@H](C)CC)C(C)C)[C@@H](C)O)[C@@H](C)O)[C@@H](C)O)C(=O)N[C@@H](CS)C(=O)N[C@H](C(=O)N[C@@H](CCCCN)C(=O)O)[C@@H](C)O", "note": "[ACP10] (H-SVTPIVCGETCFGGTCNTPGCSCSWPICTK-OH; N-terminus and C-terminus assumed)", "values": [{"measurement": "cytotoxicity, in words", "setting": "[6]", "value": "pronounced cytotoxicity"}]}, {"compound": "YKQCHKKGGHCFPKEKICIPPSSDFGKMDCRWRWKCCKKGSG (cysteines drawn unpaired) [ACP8]", "values": [{"measurement": "selective cytotoxicity, in words", "setting": "[7]", "value": "selectively targeting"}, {"measurement": "selective cytotoxicity, in words", "setting": "[8]", "value": "selectively targeting"}, {"measurement": "selective cytotoxicity, in words", "setting": "[9]", "value": "selectively targeting"}]}, {"compound": "FKGGGPYGQGVTRGQDLSGKDF [ACP12]", "values": [{"measurement": "Cytotoxicity against cancer cell line A549", "setting": "[2]", "value": ">1000"}, {"measurement": "anticancer activity, in words", "setting": "[10]", "value": "demonstrated anticancer activity"}, {"measurement": "anticancer activity, in words", "setting": "[11]", "value": "demonstrated anticancer activity"}]}, {"compound": "GLLGVLGSVAKHVLPHVVPVIAEHL [ACP9]", "values": [{"measurement": "cytotoxicity, in words", "setting": "[12]", "value": "particularly effective"}, {"measurement": "cytotoxicity, in words", "setting": "[13]", "value": "particularly effective"}]}, {"compound": "CC[C@H](C)[C@H](NC(=O)[C@H](CS)NC(=O)[C@@H]1CCCN1C(=O)[C@@H](NC(=O)[C@H](Cc1ccccc1)NC(=O)[C@@H](NC(=O)[C@H](CS)NC(=O)[C@H](CO)NC(=O)[C@H](CCC(=O)O)NC(=O)CNC(=O)[C@H](CS)NC(=O)[C@@H]1CCCN1C(=O)[C@@H](NC(=O)[C@@H](NC(=O)CN)C(C)C)[C@@H](C)CC)C(C)C)[C@@H](C)CC)C(=O)N[C@@H](CO)C(=O)N[C@H](C(=O)N[C@@H](CC(C)C)C(=O)N[C@@H](CC(C)C)C(=O)NCC(=O)N[C@@H](CS)C(=O)N[C@@H](CO)C(=O)N[C@@H](CS)C(=O)N[C@@H](CCCCN)C(=O)N[C@@H](CC(N)=O)C(=O)N[C@@H](CCCCN)C(=O)N[C@H](C(=O)N[C@@H](CS)C(=O)N[C@@H](Cc1ccc(O)cc1)C(=O)N[C@@H](CCCNC(=N)N)C(=O)N[C@@H](CC(N)=O)C(=O)O)C(C)C)[C@@H](C)O", "note": "[ACP6] (H-GVIPCGESCVFIPCISTLLGCSCKNKVCYRN-OH)", "values": [{"measurement": "anticancer effects, in words", "setting": "[5]; [14]", "value": "affected"}, {"measurement": "anticancer effects, in words", "setting": "[5]; liver and breast cancers", "value": "notable anticancer effects"}]}]}
